Experimental data reported in patent US5117037A, “Cis-bicyclo[4,3.0]non-2-end derivatives” (Sagami Chemical Research Center Toa Eiyo Ltd., priority 1989, dated 1992).

Legend:
[1] = tested on: platelet aggregation (ADP-induced); test: Platelet anti-aggregatory activities, ADP-induced aggregation of washed platelet suspension; type: cell-based, Japanese white male rabbits; settings: for IC50: Oryctolagus cuniculus, 0.05 h, rabbit platelet suspension, 3 min preincubation, read-out: Platelet anti-aggregatory activities ED50, ADP (concentration inhibiting 50% of the platelet aggregation); for activity ratio, ADP (PGI2 = 1): ratio of ED50 relative to PGI2
Protocol: (§1) Japanese white male rabbits having a weight of from 2.0 to 2.5 kg were used.
(§2) Under anesthesia with pentobarbital sodium, blood was collected from the carotid artery and mixed with citric acid dextrose solution (1/7 volume) as an anticoagulant. Then, the mixture was subjected to centrifugal separation at 140 ×g for 15 minutes, whereupon the supernatant (platelet rich plasma: PRP) was collected. PRP was subjected to centrifugal separation at 1,300 ×g for 7 minutes, and platelet pellets thereby obtained were washed with a HEPES buffer solution (pH 6.5) for washing platelets and then subjected to centrifugal separation at 1,300 ×g for 7 minutes. The platelet pellets were washed twice under the same conditions and then suspended in a suspending solution (prepared by adding 0.1% […] for washing platelets) to make a platelet suspension containing from 5 to 8×10^8 platelets/ml. An aggregation meter was used for the measurement of the platelet aggregatory ability. To 380 μl of the platelet suspension, 10 μl of a test compound or a solvent as control was added. Three minutes later, 10 μl of a platelet aggregatory substance (as the final concentration: […], or […]) was added to induce platelet aggregation. The blood platelet anti-aggregatory activities by the test compound was represented by ED50 (i.e. the concentration of the test compound inhibiting 50% of the platelet aggregation).

[2] = tested on: platelet aggregation (collagen-induced); test: Platelet anti-aggregatory activities, collagen-induced aggregation of washed platelet suspension; type: cell-based, Japanese white male rabbits; settings: for IC50: Oryctolagus cuniculus, 0.05 h, rabbit platelet suspension, 3 min preincubation, read-out: Platelet anti-aggregatory activities ED50, collagen (concentration inhibiting 50% of the platelet aggregation)
Protocol: as §1, §2

[3] = tested on: gastric lesion induced by ethanol; test: Inhibitory effect on formation of gastric lesion induced by ethanol; type: in vivo, Male wistar rats; settings: rat, p.o, 1.5 hours later; for ED50: po, 1 ml of 99.5% ethanol orally 30 minutes after test compound, read-out: Inhibitory effect on formation of gastric lesion induced by ethanol ED50 (dose at which the ulcer was inhibited by 50%); for activity ratio, gastric lesion (PGE2 = 1): ratio of ED50 relative to PGE2
Protocol: Male wistar rats having a weight of from 170 to 270 g were put into individual cages and starved for 24 hours. During this starvation period, the rats were allowed to drink water freely. A test compound or PGE2 as a comparative compound was orally administered at a dose of 3 μg/kg, 10 μg/kg or 30 μg/kg, and 30 minutes later, 1 ml of 99.5% ethanol was orally administered to each rat. One hour or 4.5 hours after the ethanol administration, each rat was sacrificed by cervical vertebral dislocation, and the stomach was taken out. Each stomach was inflated with an amount of about 8 ml of 1% formaline solution and put into 1% formaline solution for 30 minutes to fix the gastric wall. After the fixing, the stomach was severed along the greater curvature, and the mucous membrane surface of the stomach was gently washed with flowing water. Then, the total length of lesions appearing on the gastric glandular portion was determined and used as the ulcer index.
The inhibitory effect of the test compound was represent by ED50 (i.e. the dose of the test compound at which the ulcer was inhibited by 50% relative to the ulcer index of the non-treated group). To the non-treated group, the solvent was administered.

IC50 [1] [nM]	IC50 [2] [nM]	Compound	activity ratio, ADP (PGI2 = 1) [1]	activity ratio, collagen (PGI2 = 1) ([2]; ratio of ED50 relative to PGI2)	ED50 [3] [µg/kg]	activity ratio, gastric lesion (PGE2 = 1) [3]
2.9	3.4	CCCCC[C@H](O)/C=C/[C@@H]1[C@H]2C/C(=C/CCCC(=O)O)O[C@H]2C[C@H]1O [PGI2, reference compound]				
1.3	0.58	CCC#CCC(C)(C)[C@H](O)C#C[C@@H]1[C@H]2CCC(/C=C\CCC(=O)O)=C[C@H]2C[C@H]1O [c]	2.2	5.9	0.97	9.3
		CCC#CC[C@@H](C)[C@H](O)C#C[C@@H]1[C@H]2CCC(CCOCC(=O)O)=C[C@H]2C[C@H]1O [f]			2.1	4.3
2.7	8.6	CCC#CCC(C)(C)[C@H](O)C#C[C@@H]1[C@H]2CCC(CCOCC(=O)O)=C[C@H]2C[C@H]1O [g, 3-(3-oxa-4-carboxybutyl)-7-exo-(4,4-dimethyl-3α-hydroxy-1,6-nondiynyl)-8-endo-hydroxy-cisbicyclo[4.3.0]non-2-ene]	1.1			
